melting point [°C] | SMILES
172 | Cc1cc(C)c2nc(NC3CCN(CCCO)CC3)n(Cc3nc(C)ccc3O)c2c1
46 to 47 | C=CCN(C)C(=S)Nc1ccccc1CC(=O)OC
175 to 177 | CNC(=O)N/N=C1/C(=O)N(CCN(C(C)C)C(C)C)c2ccccc21
204 to 206 | CC(C)N1C(=O)c2cncnc2Nc2ccccc21
232 to 234 | COc1cc2c(c3c1OC(C)(C)C3)C(c1cccc(-c3ccc(N)cc3)c1)=NCC2(C)C
228 to 230 | CNc1nc(-c2ccc(SC)cc2)nc(SC)c1C(=O)Nc1ccc(C)cc1
80 to 81 | COC(=O)c1sc2nc(C(C)C)ccc2c1O
182 | CCOc1ccccc1C(=O)Nc1ccc2oc(Nc3ccc(CC)cc3)nc2c1
66 to 67 | COc1cc2c(cc1OC)=C(CCCl)OCC(C)(C)C=2
72 to 76 | COc1ccc(S(=O)(=O)CC(O)(CS(=O)(=O)c2ccc(-c3ccccc3)cc2)C(=O)NO)cc1 (stereo not drawn)
85 to 89 | O=C(CC(Cc1ccccc1)C(=O)O)c1cccc(Cl)c1 (stereo not drawn)
243 to 246 | Oc1ccc2c(c1)COc1c-2cc2ccc(O)cc2c1-c1cccc(Cl)c1
158 | CCOC(=O)C(C)(C)c1ccc(-n2c(-c3cc(-c4cnc5ccccc5c4)ccn3)cn(C)c2=O)cc1
61 to 64 | CC(C)OC(=O)NCc1cccc(-c2ccccc2)c1
53 to 55 | CCCC(=O)C1=C(O)CC(C2(C)CC(C(C)CC)=NO2)CC1=O (stereo not drawn)
206 to 207 | Cc1sc(-c2ccc(Br)cc2)nc1O
112 to 114 | Cc1nn(-c2ccc(O)cc2F)c(=O)n1C(F)F
238 to 240 | Cc1nc2ccc(C#N)cc2[nH]1
140 | CCCc1nn(C)c(C(N)=O)c1C(=O)c1ccc(N)cc1
261 | Cn1c(=O)c(-c2ccccc2Cl)cc2cnc(N[C@H]3CC[C@H](NS(C)(=O)=O)CC3)nc21
165 to 167 | Cc1cc(C)nc(-c2ccc(CN3CCN(c4ccc(O)cc4)CC3)cc2)n1
214 to 215 | CN(c1cccc2cc(-c3nc(CC(=O)O)cs3)[nH]c12)S(=O)(=O)c1cccs1
107 to 109 | COc1ccc(CC(=O)c2ccc(F)cc2)cc1

melting point [°C] | SMILES
119 | N#Cc1ccc2c(c1)CCC(c1ccccc1F)=C2CCO
131 to 133 | CNC(=O)c1ccnc([N+](=O)[O-])c1
52 to 54 | CCOC(C#CC(=O)c1cc(OC)c(OC)c(OC)c1)OCC
180 to 184 | Cc1ccc(S(=O)(=O)ON=C2CCOc3cc(Cl)c(Cl)cc32)cc1
237 to 240 | CN(C)C(=O)c1cnn(C)c1C(=O)Nc1ccn2nc(N3CCOCC3)nc2c1
209 to 210 | CCc1c(C(=O)c2cc(C)cc(C)c2)n(CC2CC=CC2)c(=O)[nH]c1=O
175 to 178 | Cc1ccc(N(CCN2CCC(C(=O)c3ccc(F)cc3)CC2)C(=O)c2ccc([N+](=O)[O-])cc2)cc1
88 to 90 | N#CC1CCCc2cc3c(nc21)CCCC3 (stereo not drawn)
70 to 71 | O=C1NC(=O)C(Nc2ccc(CCNCC(O)COc3ccc(-c4ccccc4)cc3)cc2)S1 (stereo not drawn)
202 to 204 | O=C(Nc1nc(-c2ccoc2)c(C(=O)C2CCOCC2)s1)c1ccnc(Cl)c1
86 to 90 | CN(C)CCCn1cc(C2=C(c3c[nH]c4ccccc34)C(=O)N(C)C2=O)c2ccccc21
60 to 61.5 | COc1ccccc1OC(=O)CCl
260 to 262 | CCCc1c2c(c(O)c3c(=O)cc(C(=O)O)oc13)CCCC2
133 | CC(=NO)c1cccc(N)c1
> 300 | C=CCNc1nc(C2C(=O)Nc3ccc(C#N)cc32)c2cn(C3CCCC3)nc2n1 (stereo not drawn)
140 to 143 | CC1(O)c2ccccc2CC12CCC1(CC2)OCCO1 (stereo not drawn)
153 to 155 | Nc1nc(N)nc(C2(c3ccccc3)CCCCC2)n1
185 to 200 | Cc1oc(-c2ccccc2)nc1Cc1cc2cc(C=C3OC(=O)NC3=O)ccc2o1
122 to 123 | O=C1Nc2c(ccc3c2CCCC3)SC1CCCBr (stereo not drawn)
181 to 182 | COc1cc2c3cc(OC)c(OC)cc3n(C(=O)c3ccccc3)c2cc1OC
167 to 170 | CC(C)CCc1c(-c2ccc(S(N)(=O)=O)cc2)cnn(-c2cccc(Cl)c2)c1=O
135 to 137 | Cn1nnnc1C(C=O)=C(c1ccc(F)cc1)c1ccc(F)cc1
183 to 185 | O=C(c1ccc(F)cc1C(F)(F)F)N1Cc2cccnc2Nc2ccccc21

melting point [°C] | SMILES
163 to 180 | CC(=O)N1CCN(Cc2ccc(-c3cc4ncnc(Nc5ccc6[nH]ccc6c5)c4s3)cc2)CC1
178 to 180 | O=C(Nc1cccnc1)N1CCc2ccc(Cl)c(Cl)c21
67 to 69 | CC(C)(C)c1cc(SCC(=O)N2CCN(c3ccc(NC(=N)c4cccs4)cc3)CC2)cc(C(C)(C)C)c1O
170 to 171 | CCOC(=O)c1c(CI)nc2cc(OC)c(OC)cc2c1-c1ccc(OC)c(OC)c1
98 to 100 | Cc1c(O)ccc2c1OCC(c1ccc(Cl)cc1)C2 (stereo not drawn)
146 to 148 | COc1cc2c(c3c1OC(C)(C)C3)C(c1cccc(NC(=O)CCCCl)c1)=NC(C)(C)C2
172 to 174 | CCOC(=O)c1cnc2n(c1=O)-c1ccccc1N(C=O)C2
146 to 148 | Cc1nc(CN2C(=O)COc3cc(N)ccc32)no1
63 to 64 | CCC(=O)c1ccc(OCc2cccc(C(F)(F)F)c2)cc1
76 to 79.6 | CC(C)(C)OC(=O)NCC1C2CN(C(=O)C(O)(c3ccccc3)C3CCCC3)CC12 (stereo not drawn)
> 275 | Cc1ccc(C(=O)Nc2nc(-c3ccccc3)c(-c3nc4ccccc4c(=O)n3-c3ccccc3C)s2)cc1
127 to 129 | COc1ccc(C(=O)c2c(C)cc(NC(C)(C)C)nc2NC(C)(C)C)cc1
82.5 to 83.5 | COc1ccc(C(C)(C)C)cc1C(=O)c1ccc([N+](=O)[O-])cc1Cl
67 to 71 | CC12C=CCC1C1CCC3=CC(=O)CCC3C1CC2 (stereo not drawn)
148 to 151 | Cc1ccc(S(=O)(=O)OC2CCc3[nH]c4ccccc4c3C2)cc1 (stereo not drawn)
121 to 124 | CC(C)c1ccc(C(=O)CCc2ccccc2)c(C(C)C)c1OS(N)(=O)=O
125 | CCOC(=O)CCC(=O)Nc1cc(OC)c(OC)cc1C(=O)OCC
268 to 270 | CC1(C)Oc2cc(C(=O)O)sc2[C@@H](N2CCCCC2=O)[C@@H]1O (relative stereo)
204 to 206 | O=[N+]([O-])c1ccc(S(=O)(=O)c2cc(Br)nc(Br)c2)cc1
129 to 131 | CCN1CCN(CC/C=C/c2cc3ncc(C#N)c(Nc4cc(OC)c(Cl)cc4Cl)c3cc2OC)CC1
175 to 176 | Cc1ccc2c(c1)S(=O)(=O)c1cc(C)ccc1O2
126 to 127 | CCCCc1ccc(-c2nc3c(s2)C(=O)C(NCCN(C)C)=CC3=O)cc1
172 to 174 | CC(=O)c1cc(C(=O)c2ccc3ccccc3c2)c[nH]1

melting point [°C] | SMILES
320 to 322 | O=C1CC(c2cccc(OCc3ccccc3)c2)=Nc2ccc(N3CCCC3)cc21
214 to 215 | Cc1c(N2C[C@@H](N)[C@@H](C)C2)c(F)c(N)c2c(=O)c(C(=O)O)cn(C3CC3)c12 (relative stereo)
167 to 172 | C[C@H]1N(S(C)(=O)=O)CO[C@@]1(Cn1cncn1)c1ccc(Cl)cc1Cl (relative stereo)
107 to 109 | CNC(=O)C1CCc2ccccc21 (stereo not drawn)
136 to 139 | Cc1nn(C)c2c1c1oc(=O)c(Sc3ccccc3)c(O)c1c(=O)n2-c1ccc(OC(F)(F)F)cc1
115 to 116 | CCn1nc(C#N)c(Nc2ccc(F)cc2[N+](=O)[O-])n1
125 to 127 | CCOC(=O)Cn1c(C(=O)NCc2nnc(C)n2-c2sc(CC)cc2C(=O)c2ccccc2Cl)cc2cc(F)ccc21
158 to 160 | CCCCOc1cc(C(=O)O)n(Cc2ccc(C(F)(F)F)cc2Cl)n1
238 to 239 | Fc1cccc(Cl)c1-c1cc(-c2ccc(Cl)cc2)nc2ncnn12
145 to 147 | O=C1Nc2c(ccc3c2CCCC3)SC1CCCN1CCN(c2ccc(F)cc2)CC1 (stereo not drawn)
< 70 | CC1(C)CCC(C)(C)c2cc(-c3cc(-c4ccc(C(=O)O)cc4)ccc3-c3cccc(O)c3)ccc21
85 to 87 | COC(=O)Cc1cc(C(C)=O)ccc1OCc1ccccc1
85 to 88 | COc1cc(NC(=O)OCCCN2CCC(c3nn(C)c4cc(F)ccc34)CC2)cc(OC)c1OC
> 280 | Nc1ccc2c(CCl)cc(O)nc2n1
113 to 115 | COc1ccccc1C1(C(C)C)C(=O)N(C)c2ccccc21 (stereo not drawn)
159 to 160 | N#CNC(=NC1CCN(Cc2ccccc2)CC1)NC1CCc2ccccc21 (stereo not drawn)
121 to 140 | CC1CON2C(=O)c3cc(Cl)ccc3OC2C1 (stereo not drawn)
225 | CCOC(=O)C(=CNc1ccc([N+](=O)[O-])cc1O)C(=O)c1cc(F)c(F)c(F)c1F
209 to 212 | O=C1N(Cc2ccc(-c3ccno3)cc2)c2ccccc2C12COc1cc3c(cc12)OCCO3 (stereo not drawn)
53 to 55 | NCCCC(F)(F)C(F)(F)C(F)(F)C(F)(F)C(F)(F)C(F)(F)C(F)(F)C(F)(F)C(F)(F)C(F)(F)F
59 to 60 | Cc1ccc(CC(N)=NO)cc1C
258 to 260 | Cc1[nH]c(=O)ccc1C(=O)c1ccco1
148 to 151 | CCOC(=O)C(NC(=O)NN1CC(=O)NC1=O)c1ccccc1 (stereo not drawn)

SMILES | melting point [°C]
CCCN(CCC)C(=O)n1cc(C)c2c1CC1(c3cccc(O)c3)CCN(CC)CC1C2 (stereo not drawn) | 151 to 153
CCC(Oc1cccc([N+](=O)[O-])c1Cl)C1=NCCN1 (stereo not drawn) | 100 to 103
Cc1c(Cl)nc(N2CCNCC2)nc1NC(C)C | 199
O=Cc1cc2cccc3ccc4cccc1c4c32 | 172 to 174
O=P(Oc1ccccc1O)(Oc1ccccc1O)c1ccccc1 | 270
OC1C2=C(CCN(CCCCc3c[nH]c4ccccc34)C2)c2ccccc21 (stereo not drawn) | 205 to 208

— a melting point compilation (Tetko et al.; mined from patent text by program, amines drawn as free bases though some values may be those of a salt)
